Assay results reported in US8048927B2 (Besins Healthcare Luxembourg, priority 2004, dated 2011).

Assays:
[1] = tolerance of 4-hydroxy tamoxifen gel in healthy premenopausal women (Example 3)
Description: Each participant applied the gel daily for the duration of two menstrual cycles.
On the first day of the following menstruation, treatment, which consisted of daily application of the gel over two menstrual cycles, began. Blood samples were collected 24 hours following the morning application of gel on days 7, 20 and 25 of the first and second cycles. On the last day of administration, day 25 of the second menstrual cycle, serial blood samples were collected prior to application and at 0.5, 1, 1.5, 2, 3, 4, 6, 12, 18, 24, 36, 48, and 72 hours after application of the gel.

estrone sulphatase = target: T1, estrone sulphatase (Homo sapiens, UniProt P08842); conditions: mammary cancer cell lines; cited from earlier work
T1 construct: estrone sulphatase activity in mammary cancer cell lines; endogenous in cells
T1 sequence (P08842 22-583): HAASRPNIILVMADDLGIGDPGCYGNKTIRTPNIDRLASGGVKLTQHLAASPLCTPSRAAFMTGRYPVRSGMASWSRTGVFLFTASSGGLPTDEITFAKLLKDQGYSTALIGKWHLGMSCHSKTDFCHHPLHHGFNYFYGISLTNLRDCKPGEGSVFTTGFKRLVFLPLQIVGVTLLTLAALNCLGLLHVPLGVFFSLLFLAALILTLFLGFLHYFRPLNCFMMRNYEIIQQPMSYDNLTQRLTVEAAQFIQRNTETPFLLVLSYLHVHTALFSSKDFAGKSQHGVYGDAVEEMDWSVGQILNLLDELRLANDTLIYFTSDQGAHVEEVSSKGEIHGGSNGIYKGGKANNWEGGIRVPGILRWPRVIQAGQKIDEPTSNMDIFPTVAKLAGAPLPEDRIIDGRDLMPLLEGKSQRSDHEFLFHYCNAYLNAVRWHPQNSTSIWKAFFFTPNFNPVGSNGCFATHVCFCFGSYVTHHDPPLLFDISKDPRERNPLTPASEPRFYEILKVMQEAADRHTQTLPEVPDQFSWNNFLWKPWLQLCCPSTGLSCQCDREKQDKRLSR

rat liver = conditions: in vivo; cited from earlier work
[2] = human, in vivo
Description: The patients received [^3H]-labeled drug applied directly on the affected breasts at specified intervals ranging from 12 hours to 7 days before surgery to excise diseased tissue. Breast tissue from three regions: the tumor, tissue immediately surrounding the tumor, and normal tissue, was excised and immediately frozen in liquid nitrogen. Additionally, plasma and urine samples were obtained at scheduled intervals and frozen until analysis.

estrogen receptors = conditions: in vitro; cited from earlier work
[3] = in vivo; cited from earlier work

CCC(=C(c1ccc(O)cc1)c1ccc(OCCN(C)C)cc1)c1ccccc1 [4-hydroxy tamoxifen, 1-[4-(2-N-dimethylaminoethoxy)phenyl]-1-(4-hydroxyphenyl)-2-phenylbut-1-ene]
patients who developed an allergic reaction to the gel ([1]; 36 patients): One | patients who reported facial acne ([1]; 36 patients, 5 had a past history of acne): 10 | biological tolerance ([1]; all 36 patients, daily gel over two menstrual cycles): excellent | effect on FSH, LH, estradiol, or progesterone hormone levels ([1]; during the menstrual cycles): did not affect | echographic examination of the ovaries ([1]; end of treatment, all patients): normal in all patients | laboratory or clinical evidence of systemic effects ([1]; topical application): no detectable laboratory or clinical evidence of systemic effects | inhibitory effect on estrone sulphatase activity (estrone sulphatase): significant inhibitory effect | rat liver carcinogenicity (rat liver): not | metabolism in cytosolic and nuclear fractions of breast tissue [2]: remained unmetabolized except for limited isomerization from the Z to the E form | retention in the breast [2]: approximately 4 days | subcellular distribution in breast tissue [2]: concentrated predominantly in the cytosolic and nuclear fractions of breast tissue | potency versus tamoxifen, as measured by binding affinity to estrogen receptors (estrogen receptors): more potency than tamoxifen | breast tissue concentration by site of application [3]: concentrated at higher amounts in breast tissue when the gel was applied directly to the breasts
